In patent US7452717B2, “Compositions and methods for sensitizing and inhibiting growth of human tumor cells” (St. Jude Children's Research Hospital, priority 1998, dated 2008):
Entries after “also recorded” stand apart in the source; their conditions may differ. Where two headings read alike, the source gives them in different places.

Key:
topoisomerase I = topoisomerase I (Homo sapiens, UniProt P11387); settings: cited from earlier work
[1] = in humans; cited from earlier work
[2] = system: U-373 glioma cells expressing rabbit liver CE; test: Growth inhibition by APC, U-373 glioma cells expressing rabbit liver CE; type: cell-based, human; settings: U-373 cells expressing rabbit liver CE, 2 h exposure (FIG. 7)
Protocol: FIG. 7 is a linegraph showing a comparison of the sensitization, depicted as % survival on the Y-axis, of U-373 glioma cells exposed to APC, depicted as log[APC] at concentrations from 10^−8 to 10^−5 M on the X-axis, from in situ expression of rabbit liver CE (filled squares) and human alveolar macrophage CE (filled circles). Cells were exposed for 2 hours to APC.
(§1) No known human enzyme activates APC. […] Thus, the combination of APC and sensitization of selected tumor cells with rabbit liver CE as described above can be used to produce a tumor-specific cell death while greatly minimizing the toxic side effects associated with administration of chemotherapy.

rabbit liver CE [3] = target: T1, rabbit liver CE (Oryctolagus cuniculus, UniProt P12337); type: biochemical; design: To amplify a full length rabbit CE cDNA, oligonucleotide primers RabNTERM; expressed in transfected cells; settings: in vitro, rabbit CE (FIG. 6)
T1 sequence (P12337 19-565): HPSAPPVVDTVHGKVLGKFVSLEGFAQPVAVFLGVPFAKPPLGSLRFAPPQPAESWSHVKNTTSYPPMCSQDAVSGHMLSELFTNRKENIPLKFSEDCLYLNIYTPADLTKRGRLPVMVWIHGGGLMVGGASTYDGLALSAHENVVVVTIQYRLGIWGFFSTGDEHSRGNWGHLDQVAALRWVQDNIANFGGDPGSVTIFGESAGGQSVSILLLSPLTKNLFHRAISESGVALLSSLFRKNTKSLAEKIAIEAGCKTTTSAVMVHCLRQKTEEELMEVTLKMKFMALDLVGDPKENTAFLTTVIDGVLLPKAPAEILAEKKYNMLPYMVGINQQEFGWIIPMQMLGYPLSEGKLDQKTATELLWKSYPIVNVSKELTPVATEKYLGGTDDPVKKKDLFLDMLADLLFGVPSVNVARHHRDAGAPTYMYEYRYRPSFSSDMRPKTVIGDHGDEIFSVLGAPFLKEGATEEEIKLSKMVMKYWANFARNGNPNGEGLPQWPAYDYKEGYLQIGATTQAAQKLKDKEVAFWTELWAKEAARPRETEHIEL
Source text: FIG. 6 is a linegraph showing the conversion of APC, depicted on the X-axis at nanomolar concentrations, to SN-38, depicted on the Y-axis at nanomolar concentrations, in vitro by the activity of rabbit liver CE given at doses of 0 (filled cross), 10 (filled hexagon), 25 (filled triangle), 50 (filled circle) or 100 (filled square) units. Data presented represent the mean response at each dose level.
as §1

[4] = system: U373 glioblastoma xenografts transfected with control plasmid; test: U373 glioblastoma xenografts with control plasmid in SCID mice; type: in vivo; settings: U373 xenografts with control plasmid (no rabbit CE), CPT-11 7.5 mg/kg/day, three cycles
Source text: (§2) The tumor growth rate is depicted on the Y-axis in terms of tumor volume and is plotted as a function of time in weeks (X-axis). Open circles depict the tumor volume of untreated U373 xenografts expressing rabbit CE. Filled triangles depict the response of control xenografts (no rabbit CE) treated with CPT-11. Filled squares depict the response of cells expressing rabbit CE and treated with CPT-11. […] Each point represents the mean of 14 tumors in 7 individual mice.
(§3) Similar studies were performed employing U373 glioblastoma cells transfected with the pIRESneo plasmid or with pIRESneo containing the cDNA for rabbit liver CE and selected with G418. Expression of CE in the tumor cells was confirmed by biochemical assay using the substrate o-NPA. Cells were injected subcutaneously into the flanks of the SCID mice.

[5] = system: CEs purified from human tissues; settings: cited from earlier work
[6] = system: Cos7 cells expressing rabbit liver CE; test: Cell survival of Cos7 cells transiently transfected with rabbit CE (pCIRABFL); type: cell-based, monkey; settings: control Cos7 cells versus Cos7 cells transfected with CE
Source text: To confirm that the cDNA encoded CE, the 1.7 kb EcoRI fragment was ligated into pCIneo to generate pCIRABFL and the plasmid transiently transfected into Cos7 cells. pCIneo contains the SV40 origin of replication allowing plasmid amplification in cells expressing the large T antigen, such as Cos7.

pig liver CE = test: CPT-11 metabolism by commercially available pig liver CE; settings: commercially available partially purified pig liver CE
Source text: (§4) This screening included enzymes from a series of sera, cell extracts and commercially available CEs using a rapid fluorometric assay.

[7] = system: COS-7 cells transfected with the parent plasmid; test: Growth inhibition, COS-7 cells transfected with parent plasmid; type: cell-based, monkey; settings: Primates, read-out: IC50 (CPT-11); COS-7 cells transfected with the parent plasmid (pCEneo)
Protocol: (§5) Growth inhibition assays were performed with COS-7 cells as previously described (Potter et al. 1998 Cancer Res. 52:2646-2651; Danks et al. 1998 Cancer Res. 52:2646-2651,1998). Forty-eight hours after transfection, 5×10^4 cells were plated into 1.5 cm diameter dishes and allowed to attach overnight. […] Cell number was determined by counting using a Coulter Multisyser II (Coulter Electronics, Luton, England) and growth inhibition curves were plotted using Prism software (GraphPad Software Inc., San Diego, Calif.).

Rh30 xenografts = test: Rh30 rhabdomyosarcoma xenografts (no CE) in SCID mice; type: in vivo; settings: Rh30 xenografts not expressing CE, 2.5 mg CPT-11/kg/day, 5 days/week for 2 weeks, every 21 days, three cycles
Protocol: (§6) The tumor growth rate is depicted on the Y-axis of each graph in terms of tumor volume and is plotted as a function of time in weeks (X-axis).
(§7) In this preclinical model, expression of the transfected cDNA for rabbit CE was maintained for at least 12 weeks.
(§8) Experiments were performed in this model to compare the responses of mice bearing human Rh30 and Rh30pIRESrabbit xenografts. Rh30 rhabdosarcoma xenografts were transfected with pIRESneo plasmid containing the cDNA for rabbit liver CE and selected with G418. Expression of CE was confirmed by biochemical assay using the CE substrate o-NPA and maintained for at least 12 weeks. Two groups of SCID mice were then injected with the transfected Rh30pIRESrabbit cells subcutaneously into the flanks. A third group of control mice was injected in identical fashion with Rh30 cells not transfected with the plasmid.

[8] = system: Rh30pIRESrabbit xenografts (expressing rabbit CE); test: Rh30pIRESrabbit rhabdomyosarcoma xenografts in SCID mice; type: in vivo; settings: 2.5 mg CPT-11/kg/day, 5 days/week for 2 weeks, every 21 days, three cycles
Protocol: as §6, §7, §8

[9] = system: U373 glioblastoma xenografts expressing rabbit liver CE; test: U373 glioblastoma xenografts expressing rabbit CE in SCID mice; type: in vivo; settings: CPT-11 7.5 mg/kg/day, three cycles
Source text: as §2, §3

human liver CE (hCE1) = target: T2, human liver CE (hCE1) (Homo sapiens, UniProt P23141); test: CPT-11 conversion assay, COS-7 cells expressing hCE1; type: in vitro ADME; settings: plasmid pCIHUMCAR, enzyme hCE1
T2 construct: expressed in transfected cells; host or cells: COS-7 (sonicates of transiently transfected cells)
T2 sequence (P23141 18-567): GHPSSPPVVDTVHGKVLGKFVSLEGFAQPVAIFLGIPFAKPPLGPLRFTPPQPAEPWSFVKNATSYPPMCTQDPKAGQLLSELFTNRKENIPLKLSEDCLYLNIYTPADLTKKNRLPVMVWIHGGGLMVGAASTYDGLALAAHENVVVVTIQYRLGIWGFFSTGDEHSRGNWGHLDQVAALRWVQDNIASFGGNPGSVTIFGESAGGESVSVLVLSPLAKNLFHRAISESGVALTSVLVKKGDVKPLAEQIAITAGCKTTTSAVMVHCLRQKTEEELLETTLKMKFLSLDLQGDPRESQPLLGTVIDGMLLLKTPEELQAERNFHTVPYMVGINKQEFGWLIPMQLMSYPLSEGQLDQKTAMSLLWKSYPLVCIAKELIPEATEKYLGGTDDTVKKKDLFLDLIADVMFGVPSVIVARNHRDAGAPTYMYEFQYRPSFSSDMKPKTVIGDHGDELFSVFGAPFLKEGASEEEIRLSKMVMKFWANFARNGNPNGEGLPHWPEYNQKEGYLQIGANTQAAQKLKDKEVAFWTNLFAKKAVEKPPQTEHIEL

rabbit liver CE [10] = target: T1, rabbit liver CE; type: in vitro ADME; design: To amplify a full length rabbit CE cDNA, oligonucleotide primers RabNTERM; expressed in transfected cells; host or cells: COS-7 (sonicates of transiently transfected cells); settings: COS-7 cells, plasmid pCIRAB, enzyme rabbit
[11] = system: COS-7 cells expressing hiCE; test: Growth inhibition, COS-7 cells expressing hiCE; type: cell-based, monkey; settings: Primates, read-out: IC50 (CPT-11), 2 h exposure, three days growth
Protocol: as §5

human NB-1691 xenografts = test: NB-1691 xenograft model for MRD; type: in vivo, mice; settings: 10 mg/kg CPT-11 daily for 5 days on two consecutive weeks
Source text: However, within 4-6 weeks, tumors are palpable in the exact position where the original xenograft was implanted. Since these tumors arise from cells that survived the initial cycle of chemotherapy, this model therefore mimics results seen in patients following surgical resection of the primary tumor and subsequent regrowth at the same site.

rabbit liver CE [12] = target: rabbit liver CE (Oryctolagus cuniculus, UniProt P12337); settings: commercially available partially purified rabbit liver CE
Source text: as §4

Rh30 cells = test: Growth inhibition of Rh30 cells by CPT-11 pre-incubated with rabbit liver CE; type: cell-based, human
Source text: Another aspect of the present invention relates to the ability of compositions comprising a polynucleotide encoding a carboxylesterase and a disease-specific responsive promoter of selected tumor cells to sensitize the tumor cells to a chemotherapeutic prodrug. The ability of a rabbit CE or a human intestinal CE of the present invention to sensitize human tumor cells to CPT-11 was examined. Experiments were first performed to confirm that the metabolite produced by the activity of a CE of the present invention is biologically active in vitro. Rh30 cells were exposed to the products of each reaction for one hour and the percentage of growth inhibition was determined. […] Similar confirmatory experiments were performed with COS-7 cells.
Each reaction mixture was then filter-sterilized and Rh30 cells were exposed to drug for one hour, at which time the medium was replaced with drug-free medium containing serum. […] Cells were allowed to grow for 3 cell doubling times and cell numbers were determined.

Rh18 RMS xenografts = settings: cited from earlier work

topoisomerase I, sequence (P11387 whole entry): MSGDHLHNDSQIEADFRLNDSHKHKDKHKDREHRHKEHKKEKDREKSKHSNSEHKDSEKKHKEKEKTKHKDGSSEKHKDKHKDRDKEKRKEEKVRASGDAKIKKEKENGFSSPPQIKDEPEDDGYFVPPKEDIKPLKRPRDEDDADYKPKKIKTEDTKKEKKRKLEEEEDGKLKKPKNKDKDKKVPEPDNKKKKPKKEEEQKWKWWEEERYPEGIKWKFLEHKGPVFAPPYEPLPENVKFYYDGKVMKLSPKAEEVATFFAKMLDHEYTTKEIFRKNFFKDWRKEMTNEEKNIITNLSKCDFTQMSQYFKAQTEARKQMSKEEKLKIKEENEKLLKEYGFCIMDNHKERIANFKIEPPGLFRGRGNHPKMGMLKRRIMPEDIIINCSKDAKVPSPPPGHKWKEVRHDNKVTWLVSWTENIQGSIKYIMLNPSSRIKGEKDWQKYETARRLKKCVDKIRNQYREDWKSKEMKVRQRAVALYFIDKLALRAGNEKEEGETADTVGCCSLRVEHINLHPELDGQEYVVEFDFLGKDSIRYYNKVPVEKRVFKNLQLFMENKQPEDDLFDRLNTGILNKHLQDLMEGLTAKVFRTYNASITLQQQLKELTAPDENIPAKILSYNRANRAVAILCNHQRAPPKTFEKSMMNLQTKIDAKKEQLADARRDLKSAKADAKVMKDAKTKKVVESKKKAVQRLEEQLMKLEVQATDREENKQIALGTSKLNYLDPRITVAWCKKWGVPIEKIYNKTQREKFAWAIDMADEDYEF

**Q.** For `CCc1c2c(nc3ccc(O)cc13)-c1cc3c(c(=O)n1C2)COC(=O)[C@]3(O)CC` [SN-38, 7-ethyl-10-hydroxy-camptothecin], which “inhibition of topoisomerase I” value (topoisomerase I) is on record?
**A.** Its value is “potent inhibitor of topoisomerase I”.

**Q.** Which results are given for `CCc1c2c(nc3ccc(OC(=O)N4CCC(NCCCCC(=O)O)CC4)cc13)-c1cc3c(c(=O)n1C2)COC(=O)[C@]3(O)CC` [APC]?
**A.** conversion to an active metabolite [1]: not converted to an active metabolite in humans; sensitization to growth inhibitory effects of APC [2]: sensitized to the growth inhibitory effects of APC; conversion of APC to SN-38 (rabbit liver CE [3]): converted to SN-38 in a concentration-dependent manner

**Q.** What does the source list for `CCc1c2c(nc3ccc(OC(=O)N4CCC(N5CCCCC5)CC4)cc13)-c1cc3c(c(=O)n1C2)COC(=O)[C@]3(O)CC` [CPT-11, 7-ethyl-10-[4-(1-piperidino)-1-piperidino]carbonyloxycamptothecin]?
**A.** tumor response [4]: stable disease with no significant regression; also recorded: stable disease but no significant regression; prodrug converted to active drug (SN-38) [5]: less than 5%; difference in sensitivity to CPT-11 (% cell survival, FIG. 5) [6]: approximately 350 fold; metabolism of CPT-11 (pig liver CE): metabolized CPT-11 efficiently; IC50 [7]: 5400 nM; tumor response (Rh30 xenografts): regressed only transiently, regrowing within one week after CPT-11 treatment had stopped; also recorded: initial regression but regrowth; also recorded: regressed only transiently with CPT-11 treatment, with regrowth occurring within one week after CPT-11 treatment stopped; tumor response [8]: regressed completely and did not regrow during the 12 weeks of the study; also recorded: complete tumor regression, even out to 12 weeks; tumor response [9]: regressed completely; also recorded: tumor regression was seen only in treated cells expressing rabbit CE; CPT-11 Conversion (human liver CE (hCE1)): 9.6 pmol/h/mg; CPT-11 Conversion (rabbit liver CE [10]): 2323.0 pmol/h/mg; IC50 [11]: 500 nM; time until tumors are palpable again at the original site (human NB-1691 xenografts): 4-6 weeks; tumor response (human NB-1691 xenografts): complete regression of the tumor; metabolism of CPT-11 (rabbit liver CE [12]): metabolized CPT-11 efficiently; inhibition at 1 µM (Rh30 cells; Homo sapiens, Rh30, 1 h, read-out: inhibition of cell growth): 30 to 60%; inhibition of cell growth (Rh30 cells; Rh30 cells, 1 to 5 units of CE inactivated by heating): no inhibition of cell growth; tumor response (Rh18 RMS xenografts; 10 mg/kg/day, same schedule): only partial tumor regression; tumor response (Rh18 RMS xenografts; 20 mg of CPT-11/kg/day daily for 5 days for two weeks): complete regression
